# Assay results from patent publication US6825227B2, “Method for fighting against arthropods destructive of crops and compositions therefor” (priority 2000, dated 2004).
# Assays:
# Assay type in all cases: in vivo
# Nephotettix apicalis [1] = test: Process Example B: insecticidal treatment of a rice crop against leafhoppers; settings: applied 25 days after planting out, 14 days after application
# Description: This process example gives an illustration of a process according to the invention which is useful for insecticidal treatment against leafhoppers and in particular against Nephotettix apicalis.
# This process according to the invention was carried out for the treatment of a rice crop.
# (§1) The operating conditions were reproduced and adapted from those of Process Example A.
# The active materials used were fipronil and deltamethrin in a formulation in the form of granules according to Composition Example A.
# (§2) The active material(s) was(were) applied to the plots 25 days after planting out.
# (§3) The rates of active materials applied and the results obtained 14 days after application are collated in Table 2.
# Nilaparvata lugens [2] = test: Process Example E: variation in number of Nilaparvata lugens after treatment
# From the text: (§4) This process example gives an illustration of a process according to the invention which is useful for insecticidal treatment against Nilaparvata lugens.
# (§5) The operating and measuring conditions are reproduced and adapted from Process Example B.
# The active materials used, their application rates and the results obtained are collated in Table 5.
# Tryporyza incertulas [3] = test: Process Example A: treatment of rice plots against yellow rice stem borer, count of dead plant cores; settings: applied 7 days after planting out
# Description: The treatment process carried out was a treatment process against yellow rice stem borer or Tryporyza incertulas during the infestation of a rice crop. For the comparison of the process according to the invention with known insecticidal treatment processes, four plots were prepared in a similar manner.
# The first is left without treatment, the second is treated with fipronil as active material, the third with deltamethrin and the fourth with fipronil and deltamethrin in accordance with the process according to the invention.
# After sowing and then growing, the rice seedlings are transplanted at the three- to four-leaf stage.
# The various active materials were then applied 7 days after planting out.
# The formulation used in this process according to the invention is identical to that of Composition Example A.
# The application rates and the results obtained are collated in Table 1.
# The measurement was carried out by counting the number of rice plant cores that were dead due to attack by the damaging insects treated, i.e. Tryporyza incertulas; thus, the smallest number is obtained after carrying out the process according to the invention, while the untreated plots or plots treated in a known manner give substantially larger numbers.
# Nephotettix apicalis [4] = test: Process Example G: variation in number of Nephotettix apicalis after treatment
# From the text: This process example gives an illustration of a process according to the invention which is useful for insecticidal treatment against Nephotettix apicalis. The operating and measuring conditions are reproduced and adapted from Process Example B.
# The active materials used, their application rates and the results obtained are collated in Table 7.
# rice crop = test: Process Example D: yield of a rice crop with control of the insects which ravage it; settings: versus plot without treatment
# Description: This process example according to the invention gives an illustration of the improvement in the yield of a rice crop obtained concomitantly with the control of the insects which ravage this rice crop.
# In this treatment Process Example according to the invention, the yield of the crop was evaluated, along with the improvement in this yield obtained by carrying out the said process according to the invention simultaneously using fipronil as compound (A) and cypermethrin as compound (B).
# as §5
# The application rates and the results are collated in Table 4.
# Nilaparvata lugens [5] = test: Process Example H: variation in number of Nilaparvata lugens after treatment; settings: fipronil 25 g/ha
# From the text: as §4, §5
# The active materials used, their application rates and the results obtained are collated in Table 8.
# Scotinophara lurida = test: Process Example K: treatment of a rice crop against Scotinophara lurida; settings: fipronil 25 g/ha
# From the text: The treatment process used was a process of treatment against Scotinophara lurida during the infestation of a rice crop.
# as §5
# The active materials used, their application rates and the results obtained are collated in Table 11.
# Nilaparvata lugens [6] = test: Process Example I: variation in number of Nilaparvata lugens after treatment; settings: fipronil 25 g/ha
# From the text: as §4, §5
# The active materials used, their application rates and the results obtained are collated in Table 9.
# Nilaparvata lugens [7] = test: Process Example F: variation in number of Nilaparvata lugens after treatment
# From the text: as §4, §5
# The active materials used, their application rates and the results obtained are collated in Table 6.
# Tryporyza incertulas [8] = test: Process Example J: treatment of a rice crop against yellow rice stem borer, variation in dead plant cores; settings: fipronil 25 g/ha
# Description: The treatment process used was a process of treatment against yellow rice stem borer or Tryporyza incertulas during the infestation of a rice crop.
# as §5
# The active materials used, their application rates and the results obtained are collated in Table 10.
# The measurement was carried out by counting the number of rice plant cores that were dead due to attack by the damaging insects treated, i.e. Tryporyza incertulas; thus, the greatest degree of reduction is obtained after carrying out the process according to the invention, whereas the untreated plots or plots treated in a known manner give substantially more mediocre degrees.
# Nilaparvata lugens [9] = test: Process Example C: insecticidal treatment against Nilaparvata lugens
# From the text: as §1, §2, §3
# This process example gives an illustration of a process according to the invention which is useful for insecticidal treatment against Nilaparvata lugens. The operating and measuring conditions are reproduced and adapted from Process Example B.
# The application rates and the results are collated in Table 3.
structure (smiles),measurement,setting,value
"CC1(C)[C@H](C(=O)O[C@H](C#N)c2cccc(Oc3ccccc3)c2)[C@@H]1C=C(Br)Br [deltamethrin, (S)-α-cyano-3-phenoxybenzyl (1R,3R)-3-(2,2-dibromovinyl)-2,2-dimethylcyclopropanecarboxylate]",Insecticidal efficacy,Nephotettix apicalis [1]; deltamethrin 6 g/ha,6%
same,Degree of variation in the number of damaging insects 3 days after application,Nilaparvata lugens [2]; deltamethrin 6 g/ha,+27%
same,Degree of variation in the number of damaging insects 7 days after application,Nilaparvata lugens [2]; deltamethrin 6 g/ha,0%
same,Proportion of dead plant cores found,Tryporyza incertulas [3]; deltamethrin 6 g/ha,66%
same,Degree of variation in the number of damaging insects 1 day after application,Nephotettix apicalis [4]; deltamethrin 6 g/ha,−13%
same,Degree of variation in the number of damaging insects 3 days after application,Nephotettix apicalis [4]; deltamethrin 6 g/ha,+25%
same,Degree of variation in the number of damaging insects 7 days after application,Nephotettix apicalis [4]; deltamethrin 6 g/ha,+75%
"N#Cc1nn(-c2c(Cl)cc(C(F)(F)F)cc2Cl)c(N)c1[S+]([O-])C(F)(F)F (stereo not shown) [fipronil, 5-amino-3-cyano-1-(2,6-dichloro-4-trifluoromethylphenyl)-4-trifluoromethylsulphinylpyrazole]",Improvement in the yield of the plot (%),rice crop; fipronil 10 g/ha,188%
same,Insecticidal efficacy,Nephotettix apicalis [1]; fipronil 25 g/ha,16%
same,Degree of variation in the number of damaging insects 1 day after application,Nilaparvata lugens [5]; 1 day,−15%
same,Degree of variation in the number of damaging insects 3 days after application,Nilaparvata lugens [5]; 3 days,−8%
same,Degree of variation in the number of damaging insects 7 days after application,Nilaparvata lugens [5]; 7 days,−16%
same,Degree of variation in the number of damaging insects 14 days after application,Nilaparvata lugens [5]; 14 days,+40%
same,Degree of variation in the number of damaging insects 1 day after treatment,Scotinophara lurida; 1 day,−43%
same,Degree of variation in the number of damaging insects 3 days after treatment,Scotinophara lurida; 3 days,−67%
same,Degree of variation in the number of damaging insects 14 days after treatment,Scotinophara lurida; 14 days,−45%
same,Degree of variation in the number of damaging insects 7 days after application,Nilaparvata lugens [6],+19%
same,Degree of variation in the number of damaging insects 3 days after application,Nilaparvata lugens [7]; fipronil 25 g/ha,+33%
same,Degree of variation in the number of damaging insects 7 days after application,Nilaparvata lugens [7]; fipronil 25 g/ha,+11%
same,Degree of variation in the number of dead plant cores,Tryporyza incertulas [8],−35%
same,Degree of variation in the number of damaging insects 3 days after application,Nilaparvata lugens [2]; fipronil 25 g/ha,+33%
same,Degree of variation in the number of damaging insects 7 days after application,Nilaparvata lugens [2]; fipronil 25 g/ha,+11%
same,Proportion of dead plant cores found,Tryporyza incertulas [3]; fipronil 10 g/ha,56%
same,Insecticidal efficacy,Nilaparvata lugens [9]; fipronil 10 g/ha,78%
same,Degree of variation in the number of damaging insects 1 day after application,Nephotettix apicalis [4]; fipronil 25 g/ha,+50%
same,Degree of variation in the number of damaging insects 3 days after application,Nephotettix apicalis [4]; fipronil 25 g/ha,+83%
same,Degree of variation in the number of damaging insects 7 days after application,Nephotettix apicalis [4]; fipronil 25 g/ha,+183%
"CC1(C)C(C=C(Cl)Cl)C1C(=O)OC(C#N)c1cccc(Oc2ccccc2)c1 [cypermethrin, (R,S)-α-cyano-3-phenoxybenzyl (1RS,3RS;1RS,3SR)-3-(2,2-dichlorovinyl)-2,2-dimethylcyclopropanecarboxylate]",Improvement in the yield of the plot (%),rice crop; cypermethrin 12.5 g/ha,78%
same,Degree of variation in the number of damaging insects 3 days after application,Nilaparvata lugens [7]; cypermethrin 12.5 g/ha,−27%
same,Degree of variation in the number of damaging insects 7 days after application,Nilaparvata lugens [7]; cypermethrin 12.5 g/ha,+13%
same,Insecticidal efficacy,Nilaparvata lugens [9]; cypermethrin 12.5 g/ha,21%
